Data: patent US20120107323A1, “KINASE PROTEIN BINDING INHIBITORS” (University of Florida, priority 2009, published 2012)

Tests used:
C8161 melanoma cells = assay: Cell counts, C8161; type: cell-based, human
FAK and IGF-1R = target: T1, FAK and IGF-1R (Homo sapiens, UniProt Q05397); assay: Coimmunoprecipitation of FAK and IGF-1R in C8161 melanoma cells; type: cell-based; details: average IC50, C8161 cells, immunoprecipitation with antibody against FAK; read-out: IC50, disruption of FAK/IGF-1R binding
T1 construct: endogenous in cells; host or cells: C8161 (A2) and A375 (A3) melanoma cells
T1 sequence (Q05397 2-1052 limits assumed): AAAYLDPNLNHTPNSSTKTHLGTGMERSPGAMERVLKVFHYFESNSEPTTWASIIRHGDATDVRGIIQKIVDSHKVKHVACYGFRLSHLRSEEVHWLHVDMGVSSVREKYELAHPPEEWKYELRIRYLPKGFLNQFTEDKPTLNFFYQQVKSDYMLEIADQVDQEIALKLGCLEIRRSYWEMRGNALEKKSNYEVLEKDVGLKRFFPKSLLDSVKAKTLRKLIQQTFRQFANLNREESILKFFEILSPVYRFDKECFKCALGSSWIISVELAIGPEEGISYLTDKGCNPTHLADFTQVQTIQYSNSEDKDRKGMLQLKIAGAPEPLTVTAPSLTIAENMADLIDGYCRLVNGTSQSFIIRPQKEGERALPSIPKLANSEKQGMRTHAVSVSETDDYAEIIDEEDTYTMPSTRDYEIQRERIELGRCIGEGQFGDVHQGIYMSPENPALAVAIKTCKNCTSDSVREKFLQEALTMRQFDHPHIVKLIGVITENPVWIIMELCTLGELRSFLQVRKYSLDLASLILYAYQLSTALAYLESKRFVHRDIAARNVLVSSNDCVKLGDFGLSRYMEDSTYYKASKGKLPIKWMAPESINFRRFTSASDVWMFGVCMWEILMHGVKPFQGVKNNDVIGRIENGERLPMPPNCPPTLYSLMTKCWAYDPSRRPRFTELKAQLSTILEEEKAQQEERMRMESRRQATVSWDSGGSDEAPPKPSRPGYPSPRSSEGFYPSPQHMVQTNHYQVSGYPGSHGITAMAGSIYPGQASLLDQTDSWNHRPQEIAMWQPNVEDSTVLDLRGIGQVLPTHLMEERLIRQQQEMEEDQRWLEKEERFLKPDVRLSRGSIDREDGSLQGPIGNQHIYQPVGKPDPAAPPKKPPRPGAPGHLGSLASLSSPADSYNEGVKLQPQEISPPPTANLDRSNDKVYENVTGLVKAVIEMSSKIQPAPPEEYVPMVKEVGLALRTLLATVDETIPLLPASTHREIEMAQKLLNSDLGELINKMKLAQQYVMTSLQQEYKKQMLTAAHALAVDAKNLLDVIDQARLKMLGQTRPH
From the text: Computational Docking The crystal structures of the N-terminal domain of FAK (PDB code 2AL6) (22) and the kinase domain of IGF-1R(PDB 1P40A) (23) were utilized for in silico molecular modeling of their interaction as previously described. The three-dimensional coordinates of compound NSC344553 (INT2-31), obtained from the database of the National Cancer Institute, Developmental Therapeutics Program (NCI/DTP), were docked onto the predicted interface of the amino-terminus of FAK (amino acids 127-243) with the intracytoplasmic portion of IGF-1R (21). […] 100 orientations were created for NSC344553 in the target site and were scored using the computer program grid-based scoring function. […] The intermolecular energies for all configurations of NSC 344553 in binding to FAK-NT2 were calculated as the sum of electrostatic and van der Waals energies. These energy terms were evaluated as correlation functions, which were computed efficiently with Fast Fourier Transforms. […] Bound proteins were boiled in 6× Laemmli buffer and analyzed by SDS-PAGE and Western blotting. […] The intensity of the bands in the western blots was measured with scion image analysis software program. […]

[1] = test system: esophageal patient #5 adenocarcinoma tumor; assay: Esophageal patient #5 xenograft; type: in vivo, mice
From the text: For tumor samples from human patients with esophageal or pancreatic cancer, the University of Florida IACUC approved the following protocol (IACUC Study #2000902767). A total of 25 patients, 10 with pancreatic cancer and 15 with esophageal cancer have been identified and implanted into nude mice. Initially small pieces (0.3×0.3×0.3 cm) from fresh pancreatic and esophageal human tumor samples were obtained from surgical specimens of patients operated at the University of Florida Shands Hospital, and implanted subcutaneously in-group of 2 mice for each patient. For esophageal cancer specimens, when one of them has reached 1.5 cc, it was excised and was cut into small pieces of (0.3×0.3×0.3 cm), and transplanted subcutaneously into another 10 mice. When tumors reached ˜100 mm^3, mice were randomized in the following 2 groups, with 5 mice in each group: • Group 1: Control: no treatment. • Group 2: INT2-31 (Compound 31): 50 mg/kg/day in 50 μL by i.p administration for 21 days.
Mice were euthanized 30-40 days after tumor innoculation and tumor and tissue collected. For inhibition of tumor growth in our subcutaneous model, tumor volumes (length×width×height×p/6) and body weights were determined daily including weekends and holidays, to monitor tumor growth and evaluate overall clinical condition, taking into account weight loss and indications of pain, distress, or abnormal behavior and physiology. Experiments were terminated when the mean control tumor volume was 1.5 cc (approximately 30-40 days).
Immunohistochemistry: Xenograft tumor tissue was fixed in 10% formalin and embedded in paraffin. For Ki-67 staining, samples underwent deparaffinization and antigen retrieval and incubated with the primary antibody, Ki-67 (Dako M7240), at 1:200 concentration overnight at 4° C. The tissues were stained with the chromogen DAB and counterstained with hematoxylin and 1% TBS.
Subsequently, we evaluated the inhibition of in vivo tumor growth of esophageal patient #5 specimen was evaluated. […]

CSc1ncnc2c1ccn2C1O[C@H](COP(=O)(O)O)[C@@H](O)[C@H]1O (stereo partly drawn) [INT2-31, 4-(Methylthio)-7-(5-O-phosphono-D-ribofuranosyl)-{7H-Pyrrolo[2,3-d]pyrimidine}]
growth, cell numbers (C8161 melanoma cells): potent time and dose dependent inhibition
IC50 (FAK and IGF-1R): 2.72 µM
body weights between animals in each group ([1]; 50 mg/kg daily intraperitoneal): no significant difference
tumor growth compared to PBS control ([1]; 50 mg/kg daily intraperitoneal, 21 days, p<0.05): significant decrease
percent of cells reactive to Ki67 ([1]; 50 mg/kg vs PBS group): significantly decreased
